The numbers were not newly measured in US6696551B1, “225Ac-HEHA and related compounds, methods of synthesis and methods of use” (The United States of America as represented by the …, priority 1999, dated 2004), which cites them from elsewhere.

Structures are written as SMILES.

Turning to `O=C(O)CN(CC(=O)O)[C@H](Cc1ccc([N+](=O)[O-])cc1)CN(CC(=O)O)[C@H]1CCCC[C@@H]1N(CC(=O)O)CC(=O)O` (relative stereo) [CHXA″-DTPA, N[(R)-2-amino-3-(4-nitrophenyl)propyl]-trans-(S,S)-cyclohexane-1,2-diamine-N,N,N′,N″,N″-pentaacetic acid], under “^225Ac chelate, mice”, the “maximum tolerated dose (MTD)” value is “approximately 100 kBq”. Besides, the mouse mortality (higher doses, within eight days) was 100%.
